The NIST ThermoML archive (doi:10.1021/je200964m)
Where “and” joins values, the source holds several entries; their conditions need not be identical. Identical values can stand only once.

How the values were obtained:
[1] = mn = molality of the nth substance listed, in mol/kg; settings: 298.15 K, 100 kPa, Liquid, Vibrating tube method
[2] = molar heat capacity at constant pressure; mn = molality of the nth substance listed, in mol/kg; settings: 298.15 K, 100 kPa, Liquid, Flow calorimetry

CCC(=O)[O-].[Na+] [sodium propanoate] + O
Settings | mass density, [1] [kg/m3] | molar heat capacity at constant pressure, [2] [J/K/mol]
m1 = 0.01002 | 997.478 | 75.35
m1 = 0.02029 | 997.9 | 75.37
m1 = 0.04064 | 998.74 | 75.41
m1 = 0.06027 | 999.536 | 75.44
m1 = 0.08026 | 1000.38 | 75.47
m1 = 0.1002 | 1001.21 | 75.51
m1 = 0.1998 | 1005.24 | 75.69
m1 = 0.5005 | 1016.94 | 76.31
m1 = 0.7511 | 1026.37 | 76.87
m1 = 1 | 1035.33 | 77.48
m1 = 1.982 | 1067.68 | 80.19
m1 = 3.972 | 1119.87 | 86.51
m1 = 5.982 | 1158.32 | 92.7
m1 = 8.004 | 1185.89 | 98.52

CCCC(=O)[O-].[Na+] [sodium butyrate] + O
Settings | mass density, [1] [kg/m3] | molar heat capacity at constant pressure, [2] [J/K/mol]
m1 = 0.01976 | 997.868 | 75.41
m1 = 0.04005 | 998.697 | 75.47
m1 = 0.06005 | 999.507 | 75.54
m1 = 0.08053 | 1000.32 | 75.61
m1 = 0.102 | 1001.17 | 75.68
m1 = 0.2495 | 1006.98 | 76.19
m1 = 0.4997 | 1016.49 | 77.12
m1 = 0.7508 | 1025.47 | 78.09
m1 = 1 | 1034.04 | 79.11
m1 = 1.993 | 1064.55 | 83.42
m1 = 4 | 1109.06 | 91.23
m1 = 5.997 | 1136.24 | 97.99

CC(=O)[O-].[Na+] [sodium ethanoate] + O
Settings | mass density, [1] | molar heat capacity at constant pressure, [2] [J/K/mol]
m1 = 0.01999 | 997.898 kg/m3 | 75.34
m1 = 0.02177 | 997.982 kg/m3 | 75.33
m1 = 0.03988 | 998.731 kg/m3 | 75.34
m1 = 0.04259 | 998.856 kg/m3 | 75.33
m1 = 0.06003 | 999.574 kg/m3 | 75.33
m1 = 0.06004 | 999.577 kg/m3 | 75.33
m1 = 0.08011 | 1000.41 kg/m3 | 75.34
m1 = 0.08018 | 1000.42 kg/m3 | 75.34
m1 = 0.1002 | 1001.25 kg/m3 and 1001.25 kg/m3 | 75.34
m1 = 0.25 | 1007.38 kg/m3 | 75.37
m1 = 0.4956 | 1017.13 kg/m3 | 75.48
m1 = 0.4998 | 1017.29 kg/m3 | 75.48
m1 = 0.9999 | 1036.14 kg/m3 | 75.86
m1 = 1.997 | 1070.48 kg/m3 | 77.13
m1 = 2.003 | 1070.59 kg/m3 | 77.13
m1 = 4.532 | 1141.59 kg/m3 | 81.99
